Experimental data: ChEMBL document CHEMBL1201862, “PubChem BioAssay data set” (2004)
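Grown in 96-well plates, cells were treated for 48 hours with each compound at five concentrations. Insufficient inhibition: endpoint recorded as highest concentration tested. At the GI50, growth is halved.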 Activity calls are given as the source filed them. No stated cut-off is given here; in the data, active = GI50 up to about 1.1 µM and inactive = higher.

Legend:
Experiment in all cases: DTP human tumour cell line panel, 48 h
SF-539 = system: SF-539
HCC 2998 = system: HCC 2998
LOX IMVI = system: LOX IMVI
SW-620 = system: SW-620
SNB-19 = system: SNB-19
SNB-75 = system: SNB-75
NCI-H460 = system: NCI-H460
SK-MEL-5 = system: SK-MEL-5
Malme-3M = system: Malme-3M
SK-MEL-2 = system: SK-MEL-2
CAKI-1 = system: CAKI-1
TK-10 = system: TK-10
NCI-H522 = system: NCI-H522
OVCAR-3 = system: OVCAR-3
MOLT-4 = system: MOLT-4
CCRF-CEM = system: CCRF-CEM
UACC-62 = system: UACC-62

Measured: GI50

CC(C)N(O)C(=N)c1ccccc1
inactive: SF-539 > 100 µM | HCC 2998 > 100 µM | LOX IMVI > 100 µM | SW-620 > 100 µM | SNB-19 > 100 µM | SNB-75 > 100 µM | NCI-H460 > 100 µM | SK-MEL-5 > 100 µM | Malme-3M > 10 µM | SK-MEL-2 > 100 µM | CAKI-1 > 100 µM | TK-10 > 100 µM | NCI-H522 > 100 µM

O=C1/C(=C/c2ccccc2Cl)COc2ccccc21
inactive: SF-539 17.3 µM | HCC 2998 20.9 µM | LOX IMVI 15.3 µM | SW-620 5.73 µM | SNB-75 18 µM | OVCAR-3 18.2 µM | MOLT-4 5.79 µM | NCI-H460 20.5 µM | Malme-3M 15.5 µM | SK-MEL-2 15.5 µM | CCRF-CEM 4.73 µM | TK-10 13.8 µM | NCI-H522 16.6 µM

O=[N+]([O-])c1cccc(C2=NN(c3ccccc3)C[N+](c3ccc(Br)cc3)=N2)c1
inactive: SF-539 > 100 µM | HCC 2998 70.8 µM | SW-620 > 100 µM | SNB-19 > 100 µM | SNB-75 > 100 µM | MOLT-4 35.7 µM | NCI-H460 > 100 µM | SK-MEL-5 > 100 µM | Malme-3M > 100 µM | SK-MEL-2 87.3 µM | UACC-62 > 100 µM | CAKI-1 > 100 µM | TK-10 > 100 µM | NCI-H522 77.1 µM

COc1ccc(/C=C2\SC(c3ccc(OC)cc3)N(NC(=O)Cc3ccccc3)C2=O)cc1 (stereo not given)
inactive: SF-539 > 100 µM | LOX IMVI > 100 µM | SW-620 > 100 µM | SNB-75 > 100 µM | MOLT-4 79.3 µM | NCI-H460 > 100 µM | SK-MEL-5 > 100 µM | Malme-3M > 100 µM | SK-MEL-2 > 100 µM | CCRF-CEM > 100 µM | UACC-62 > 100 µM | CAKI-1 > 100 µM | TK-10 > 100 µM | NCI-H522 > 100 µM

O=c1c2cc(Br)ccc2[nH]c(=S)n1-c1ccc(Br)cc1
inactive: SF-539 97.1 µM | HCC 2998 > 100 µM | LOX IMVI 70.6 µM | SW-620 > 100 µM | SNB-19 47.9 µM | SNB-75 12.1 µM | OVCAR-3 52.4 µM | MOLT-4 > 100 µM | NCI-H460 82.8 µM | Malme-3M > 100 µM | SK-MEL-2 87.7 µM | TK-10 > 100 µM | NCI-H522 > 100 µM

C[C@@]12CCC(=O)c3coc(c31)C(=O)c1cc3c(cc12)C(=O)C=CC3=O [HELENAQUINONE]
inactive: SF-539 17.6 µM | HCC 2998 > 71.3 µM | LOX IMVI 8.59 µM | SW-620 19.1 µM | SNB-19 > 100 µM | SNB-75 20.9 µM | OVCAR-3 18.7 µM | MOLT-4 14.3 µM | NCI-H460 26.6 µM | SK-MEL-5 15.1 µM | Malme-3M 17.3 µM | SK-MEL-2 23.9 µM | UACC-62 15.5 µM | CAKI-1 21.1 µM | TK-10 31 µM | NCI-H522 9.2 µM

O=C(CCc1nnc(S)[nH]1)NC12CC3CC(CC(C3)C1)C2
inactive: SF-539 > 100 µM | HCC 2998 > 100 µM | LOX IMVI > 100 µM | SW-620 > 100 µM | SNB-19 > 100 µM | SNB-75 > 100 µM | OVCAR-3 > 100 µM | NCI-H460 > 100 µM | SK-MEL-5 > 100 µM | Malme-3M > 100 µM | SK-MEL-2 > 100 µM | CCRF-CEM > 100 µM | UACC-62 > 100 µM | CAKI-1 > 70.5 µM | TK-10 > 100 µM

Cc1nn2c(nc1=O)sc1ccc3ccccc3c12
inactive: SF-539 > 100 µM | HCC 2998 > 100 µM | LOX IMVI > 100 µM | SW-620 > 100 µM | SNB-19 > 100 µM | SNB-75 > 100 µM | OVCAR-3 > 100 µM | MOLT-4 > 100 µM | NCI-H460 > 100 µM | SK-MEL-5 > 100 µM | Malme-3M > 100 µM | SK-MEL-2 > 100 µM | CCRF-CEM > 100 µM | UACC-62 > 100 µM | CAKI-1 > 100 µM | TK-10 > 100 µM

CCOC(=O)/C(C#N)=C1\N[C@H](C(=O)OCC)CO1
inactive: SF-539 > 100 µM | HCC 2998 > 100 µM | LOX IMVI > 100 µM | SW-620 > 100 µM | SNB-19 > 100 µM | OVCAR-3 > 100 µM | MOLT-4 > 100 µM | NCI-H460 > 100 µM | SK-MEL-5 > 100 µM | Malme-3M > 100 µM | SK-MEL-2 30.4 µM | CCRF-CEM > 100 µM | UACC-62 > 100 µM | CAKI-1 > 100 µM | NCI-H522 > 100 µM

CCCC/C=C/C=C/C=C/CCCCCCCC(=O)OCC(COC(=O)CCCCCCC/C=C/C1C=CC(CCCC)C(C(=O)O)C1C(=O)O)OC(=O)CCCCCCC/C=C/C=C/C=C/CCCC.OCCNCO (stereo not given)
inactive: SF-539 19 µM | HCC 2998 23.4 µM | LOX IMVI 13.2 µM | SW-620 4.05 µM | SNB-19 20.2 µM | SNB-75 19.2 µM | OVCAR-3 17.9 µM | MOLT-4 23.7 µM | NCI-H460 33.8 µM | SK-MEL-5 17.4 µM | Malme-3M 20.9 µM | SK-MEL-2 15.8 µM | CCRF-CEM 11.9 µM | UACC-62 14.8 µM | CAKI-1 28.8 µM | TK-10 19.1 µM

COC(=O)C(=O)C(C#N)c1ccc(CC#N)cc1 (stereo not given)
inactive: SF-539 > 100 µM | LOX IMVI > 100 µM | SW-620 > 100 µM | SNB-19 > 100 µM | SNB-75 > 100 µM | OVCAR-3 > 100 µM | MOLT-4 > 100 µM | Malme-3M > 100 µM | SK-MEL-2 > 100 µM | CCRF-CEM > 100 µM | UACC-62 > 100 µM | CAKI-1 > 100 µM | TK-10 > 100 µM | NCI-H522 > 100 µM

CCC(=O)Nc1nc2c(ncn2C2OC(COC(=O)CC)C(OC(=O)CC)C2OC(=O)CC)c(=O)[nH]1 (stereo not given)
inactive: SF-539 > 100 µM | HCC 2998 > 100 µM | LOX IMVI > 100 µM | SW-620 > 100 µM | SNB-19 > 100 µM | SNB-75 > 100 µM | OVCAR-3 > 100 µM | MOLT-4 > 100 µM | NCI-H460 > 100 µM | SK-MEL-5 > 100 µM | Malme-3M > 100 µM | SK-MEL-2 > 100 µM | UACC-62 > 100 µM | CAKI-1 > 100 µM | NCI-H522 > 100 µM

O=P(c1ccccc1)(c1ccccc1)C1CC=C2CCCCCC2C1 (stereo not given)
inactive: SF-539 > 10 µM | LOX IMVI 26.1 µM | SW-620 > 10 µM | SNB-19 27.6 µM | SNB-75 25.1 µM | OVCAR-3 23.8 µM | MOLT-4 18.8 µM | NCI-H460 32.7 µM | SK-MEL-5 19.2 µM | Malme-3M 38.9 µM | SK-MEL-2 29.9 µM | CCRF-CEM 23.6 µM | UACC-62 23.9 µM | CAKI-1 23.7 µM | TK-10 58.7 µM | NCI-H522 17.2 µM
